Laboratory results reported in patent US20230218618A1, “ADMINISTRATION OF SUMO-ACTIVATING ENZYME INHIBITOR AND ANTI-CD38 ANTIBODIES” (MILLENNIUM PHARMACEUTICALS, INC., priority 2020, published 2023).

Test system: Daudi human Burkitt’s Lymphoma cell line
Experiment: Study 7: Daudi xenograft human Burkitt's lymphoma subcutaneous tumor model (daratumumab or AB79)
Format: in vivo, CB17 SCID mice
Method: Low tumor volumes can cause problems with the data analysis, so all measurements below 25 cubic mm (including 0 values) were excluded from the analysis. After this exclusion step, the tumor volume was assumed to follow an exponential growth model. More specifically, for a given animal and treatment group,
Pairwise comparisons were performed, where the mean growth rates were compared for various pairs of treatment conditions. The results were summarized using the growth rate inhibition (GRI). Suppose µT and µC are the mean tumor growth rates for the treatment and reference groups, respectively. Define
Here, µAB, µA, µB, and µControl are the mean growth rates for the combination, drug A, drug B, and control groups, respectively. As before, µv is the mean tumor growth rate for the vehicle group, which in most cases is the same as the control group. The standard error of the synergy score was calculated as the square root of the sum of squared standard errors across the four groups. The degrees of freedom were estimated using the Welch-Satterthwaite equation. A hypothesis test was performed to determine if the synergy score differed from 0. P-values were calculated by dividing the synergy score by its standard error and tested against a t-distribution (two-tailed) with the above-calculated degrees of freedom. A P value of less than 0.05 is statistically significant.
The combination results can be interpreted as follows. Statistically significant negative synergy scores indicate a synergistic combination (“Syn.”). Statistically significant positive synergy scores indicate a sub-additive combination (“Sub-add.”) when the combination performs better (i.e. has a lower growth rate) than the best performing single agent. Statistically significant positive synergy scores indicate an antagonistic combination (“Antag.”) when the combination performs worse than the best performing single agent. Scores that are not statistically significant should be considered additive (“Add.”).
Daudi is a human Burkitt’s Lymphoma cell line. A Daudi human xenograft tumor model was generated by subcutaneous inoculation with 2.0 × 10^6 Daudi cells (cell suspension) in 7 weeks old female CB17 SCID mice (Charles River Laboratories, 251 Ballardvale St., Wilmington, MA) in the flank. When the mean tumor volume reached approximately 110 mm3, the animals were randomized into one vehicle control and six treatment groups (n=8/group). Mice were then dosed with 20% HPβCD or Compound I-263a and/or daratumumab or AB79 over a 21-day period. Tumor growth and body weight were measured twice per week during the treatment and post-treatment periods, and mice were humanely euthanized once they had reached their humane endpoint.
A 0.75 mg/mL stock solution of I-263a was formulated weekly in 20% HPβCD and administered intravenously (IV) based on an average body weight using a 0.2 mL dosing volume. Final doses of I-263a received were 7.5 mg/kg. I-263a was administered on a BIW schedule for 3 weeks (Days 1, 4, 8, 11, 15, and 18). Daratumumab (anti-CD38 antibody) (Myoderm Medical Supplies, 48 E Main St., Norristown, PA 19401) was purchased at the beginning of the study and stored at 4° C. according to manufacturer’s instructions. Final dose of daratumumab received was 7.5 mg/kg based on average body weight. Daratumumab was administered intraperitoneally (IP) using a 0.1 mL dosing volume, on a BIW schedule for 3 weeks (Days, 1, 4, 8, 11, 15, and 18). AB79 was formulated on the day of dosing in 0.9% saline and administered intraperitoneally (IP) using a 0.1 mL dosing volume, on a BIW schedule for 3 weeks (Days, 1, 4, 8, 11, 15, and 18). Final dose of AB79 was 7.5 mg/kg based on average body weight.
Tumors were measured twice weekly using Vernier calipers. Tumor volumes were calculated using standard equation: V = W2 × L/2, where V = volume, W = width, and L = length for the tumor. […]

AB79: human monoclonal antibody that binds specifically to the CD38 transmembrane glycoprotein
Tumor Volume on Day 22 (±SEM) (AB79 7.5 mg/kg BIW IP): 1033.8 (±208.8) | GRI% (AB79 7.5 mg/kg BIW IP, vs vehicle): 29% | Tumor growth relative to vehicle-treated tumors (pairwise comparison) (each agent 7.5 mg/kg BIW, I-263a p = 0.105, daratumumab p < 0.001, AB79 p = 0.002, both combinations p < 0.001, data up to Day 22): tumor growth inhibition
